Source: paper PMC6624388 (British Journal of Clinical Pharmacology, 2019)
≈ marks a conversion by molar mass, not a printed value. Where “and” joins values, the source holds several entries; their conditions need not be identical. Identical values can stand only once. Like-named read-outs stand apart in the source and are kept apart here.

Columns and labels:
tumour growth = conditions: in combination with anti‐PD‐L1, preclinical models; cited from earlier work
[1] = cited from earlier work
[2] = Safety assessments in Parts 1 and 2; type: in vivo, human; conditions: both parts, healthy volunteers
[3] = Solubility in water and other physiological relevant media; type: physicochemical
[4] = type: in vivo, human
UGTs = conditions: ref unpublished results; cited from earlier work
[5] = Stability of navoximod in human plasma; type: in vitro ADME; conditions: five freeze–thaw cycles; at least 110 days at −10°C to −30°C and −60°C to −80°C; 24 h at room temperature
Part 2 mass balance = type: in vivo, human
[6] = type: in vivo, human; remark: listed apart in the source
[7] = Part 2, oral 200 mg/600 μCi [14C]-navoximod

solubility [3]: 200 mg/mL (≈ 632 mM)
total IV clearance relative to blood flow ([4]; IV 5 mg): ~ 71 % of blood flow
CL/F (apparent oral clearance) ([4]; Part 1, healthy volunteers, oral 200 mg tablet, fasted, n = 16, geometric mean (geometric CV%)): 112 L/h and 112 (31.4) L/h
AUC(0-inf) ([4]; human, plasma, iv, 5 mg): 80.6 ng·h/mL
AUC(0-t) ([4]; human, plasma, iv, 5 mg): 79.1 ng·h/mL
Cmax ([4]; human, plasma, iv, 5 mg): 114 ng/mL
Tmax ([4]; human, plasma, iv, 5 mg): 5 min
Vd ([4]; human, plasma, iv, 5 mg): 1120 L
clearance ([4]; human, plasma, iv, 5 mg): 1030 mL/min
half-life ([4]; human, plasma, iv, 5 mg): 12.6 h
bioavailability ([4]; human, plasma, oral, 200 mg): 55.5%
AUC(0-inf) ([4]; human, plasma, po, 200 mg): 1790 ng·h/mL
AUC(0-t) ([4]; human, plasma, po, 200 mg): 1770 ng·h/mL
Cmax ([4]; human, plasma, po, 200 mg): 683 ng/mL
Vd/F ([4]; human, plasma, po, 200 mg): 1780 L
half-life ([4]; human, plasma, po, 200 mg): 11 h
stability in human plasma [5]: stable
recovery of total radioactivity in urine (Part 2 mass balance; % of administered dose, mean (± SD), oral 200 mg/600 μCi [14C]-navoximod): 80.4%
navoximod as share of plasma total radioactivity, geometric mean AUC0‐∞ ratio (Part 2 mass balance; [7]): 4.21%
navoximod as share of plasma total radioactivity, geometric mean C max ratio (Part 2 mass balance; [7]): 10.6%
geometric mean whole blood to plasma AUC0‐∞ ratio for total radioactivity (Part 2 mass balance; Part 2, total radioactivity (parent and metabolites)): 0.965
Fh (Part 2 mass balance; assuming Fg = 1): approximately 0.66
extrahepatic clearance (Part 2 mass balance; estimated): 31.2 L/h
total radioactivity recovered in excreta within the first 72 h (Part 2 mass balance; first 72 h, oral 200 mg/600 μCi [14C]-navoximod): 85.0%
Fh * Fg (Part 2 mass balance; from F and Fa): 0.66
AUC(0-inf) (Part 2 mass balance; human, plasma, po, 200 mg): 1540 ng·h/mL
AUC(0-t) (Part 2 mass balance; human, plasma, po, 200 mg): 1510 ng·h/mL
Cmax (Part 2 mass balance; human, plasma, po, 200 mg): 464 ng/mL
Vd/F (Part 2 mass balance; human, plasma, po, 200 mg): 1680 L
half-life (Part 2 mass balance; human, plasma, po, 200 mg): 9.41 h
CL renal (Part 2 mass balance; human, urine and plasma, oral, 200 mg): 20.3 mL/min
hepatic clearance (CLhep = [1 − Fh] * Qh) (Part 2 mass balance; in vivo): 29.6 L/h
fraction of metabolism (fm) (Part 2 mass balance; oral 200 mg): 0.98
hepatic first pass extraction (Part 2 mass balance; oral 200 mg): ~ 34%
fraction of the dose absorbed (Fa) (Part 2 mass balance; sum of radioactivity in urine and metabolites in faeces, as fraction): 0.841
AUC(0-t) ([6]; human, plasma, oral, 200 mg): 4.4 µM·h
Total (urine + feces) % of dose ([6]; mean of eight subjects, oral 200 mg/600 μCi [14C]-navoximod): 5.45 % of dose
Plasma % of TRA (share of total drug-derived exposure) ([6]; pooled 0–48 h plasma, n = 8, adjusted with extraction recovery, oral 200 mg/600 μCi [14C]-navoximod): 7.00%
Feces % of dose ([6]; pooled faeces, mean of eight subjects, oral 200 mg/600 μCi [14C]-navoximod): 3.79 % of dose
Urine % of dose ([6]; pooled urine, mean of eight subjects, oral 200 mg/600 μCi [14C]-navoximod): 1.66 % of dose
SMILES: O[C@H](C[C@H]1c2c(F)cccc2-c2cncn21)[C@H]1CC[C@H](O)CC1 [navoximod]
effect on tumour growth (tumour growth): inhibits tumour growth compared to either treatment alone
mean accumulation index ([1]; BID dosing): approximately 1.7
half‐life ([1]; clinical studies, monotherapy or with atezolizumab): approximately 12 hours
dose proportionality of exposure ([1]; dose range of 50–1000 mg): dose‐proportional increases in exposure
tolerability of single and twice daily oral doses ([1]; monotherapy, up to 1000 mg, cancer patients): well tolerated
tolerability ([2]; all IV (5 mg) and oral (200 mg) doses): generally well tolerated
severity of adverse events ([2]; all IV and oral doses): mild
major UGTs responsible for navoximod metabolism (UGTs): UGT1A9 and 2B7
